Consider 22 compounds from patent US20240238424A1, “HETEROBIFUNCTIONAL COMPOUNDS AND METHODS OF TREATING DISEASE” (Halda Therapeutics OpCo, Inc., priority 2021, published 2024).

Holding throughout (type): cell-based
Experiment [1] addresses T1, GSPT1 (Homo sapiens, UniProt P15170+Q96SW2).
T1 construct: host or cells: HEK293 LgBiT cell line
Nature of the experiment: GSPT1 HiBit degradation assay. The conditions noted are these: HEK293 LgBiT cells expressing GSPT1_HiBiT, luminescence after 6 hours. Put shortly:
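HEK293 cells stably expressing LgBiT and GSPT1-HiBiT, seeded 18-24 h before dosing, were treated with titrated compound plus endurazine (0.5× final) at 37 °C. Luminescence loss after 6 h reflects GSPT1 degradation; DC50 is the concentration giving 50% degradation.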

Experiment [2] concerns U937 cells. Put plainly: Cellular growth inhibition assay (CTG), U937 cells. The conditions noted are these: Homo sapiens, U-937, CellTiter-Glo 2.0, day-5. On the procedure: (§1) Cells were seeded in Poly-D-lysine-treated 384-well white plates, with 25 μL cell suspension at 250 cells/well for continuous treatments, and 1000 cells/well for washout treatments. Plates were spun at 300×g for 3 minutes, and cells were cultured at 37° C. with 5% CO2 in a humidified tissue culture incubator.
(§2) After 24 hours, the test compounds were diluted with cell culture medium in 96 deep well plates. DMSO was used as a negative control. A 25 μL aliquot of compound-containing medium was added in each well, at a final top concentration of 10 μM or 30 μM test compound, with 3-fold dilutions. For washout assays, after 4 hours, cell medium with compound was removed, and the cells were washed with 75p L fresh medium. Plates were then spun at 300×g for 3 minutes and replaced with 50 μL fresh medium in each well. Plates were then spun at 300×g for 3 minutes again and cultured at 37° C. with 5% CO2.
(§3) At day-0 and day-5 of compound treatments, cell viability was quantified with CellTiter-Glo 2.0 (Promega). After equilibrating cell plates at room temperature for 30 minutes, 25 μL CellTiter-Glo 2.0 reagent was dispensed into each well (on top of 50 μL of cell culture). Plates were mixed on a shaker for 2 minutes at 500 rpm, followed by a 10-minute incubation at room temperature. Luminescence readings were measured with an EnVision Plate Reader. Data was normalized to DMSO treated day-0 cell wells. A four-parameter non-linear regression curve fit was applied to dose-response data in Prism to determine the half maximal growth inhibitory concentration (GI50) of each compound.

Experiment [3] concerns 293 mutant EGFR_T790M L858R Cells. Put plainly: Cellular growth inhibition assay (CTG), 293 mutant EGFR_T790M L858R cells. The conditions noted are these: 293 mutant EGFR T790M L858R cells, CellTiter-Glo 2.0, day-5. Here is the method:
as §1, §2, §3

T1 sequence (P15170 whole entry): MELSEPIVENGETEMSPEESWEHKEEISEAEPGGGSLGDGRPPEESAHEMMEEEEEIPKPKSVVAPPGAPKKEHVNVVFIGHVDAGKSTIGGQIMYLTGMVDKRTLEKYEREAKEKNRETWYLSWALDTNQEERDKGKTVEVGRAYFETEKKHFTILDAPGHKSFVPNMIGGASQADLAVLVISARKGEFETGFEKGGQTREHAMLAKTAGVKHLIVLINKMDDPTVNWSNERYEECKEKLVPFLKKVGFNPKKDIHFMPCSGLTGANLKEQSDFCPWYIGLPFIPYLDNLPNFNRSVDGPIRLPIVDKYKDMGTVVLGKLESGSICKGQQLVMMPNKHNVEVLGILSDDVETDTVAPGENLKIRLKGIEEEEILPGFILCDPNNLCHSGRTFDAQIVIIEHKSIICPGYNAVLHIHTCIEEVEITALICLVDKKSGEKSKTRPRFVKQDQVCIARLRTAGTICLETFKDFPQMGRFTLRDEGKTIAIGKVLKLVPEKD
T1 sequence (Q96SW2 whole entry): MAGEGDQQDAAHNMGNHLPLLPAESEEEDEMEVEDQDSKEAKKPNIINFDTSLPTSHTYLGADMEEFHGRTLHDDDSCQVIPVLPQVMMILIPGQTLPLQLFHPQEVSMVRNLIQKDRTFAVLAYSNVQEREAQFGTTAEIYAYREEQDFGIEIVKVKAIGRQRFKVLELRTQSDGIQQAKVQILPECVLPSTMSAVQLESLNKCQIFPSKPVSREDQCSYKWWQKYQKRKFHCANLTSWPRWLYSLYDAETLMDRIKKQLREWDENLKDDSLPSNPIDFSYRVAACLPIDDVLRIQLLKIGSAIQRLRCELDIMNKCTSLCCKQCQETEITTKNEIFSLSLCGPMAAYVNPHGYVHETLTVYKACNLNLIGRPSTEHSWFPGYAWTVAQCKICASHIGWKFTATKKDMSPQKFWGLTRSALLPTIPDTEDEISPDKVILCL
T1 sequence (Q16531 whole entry partner): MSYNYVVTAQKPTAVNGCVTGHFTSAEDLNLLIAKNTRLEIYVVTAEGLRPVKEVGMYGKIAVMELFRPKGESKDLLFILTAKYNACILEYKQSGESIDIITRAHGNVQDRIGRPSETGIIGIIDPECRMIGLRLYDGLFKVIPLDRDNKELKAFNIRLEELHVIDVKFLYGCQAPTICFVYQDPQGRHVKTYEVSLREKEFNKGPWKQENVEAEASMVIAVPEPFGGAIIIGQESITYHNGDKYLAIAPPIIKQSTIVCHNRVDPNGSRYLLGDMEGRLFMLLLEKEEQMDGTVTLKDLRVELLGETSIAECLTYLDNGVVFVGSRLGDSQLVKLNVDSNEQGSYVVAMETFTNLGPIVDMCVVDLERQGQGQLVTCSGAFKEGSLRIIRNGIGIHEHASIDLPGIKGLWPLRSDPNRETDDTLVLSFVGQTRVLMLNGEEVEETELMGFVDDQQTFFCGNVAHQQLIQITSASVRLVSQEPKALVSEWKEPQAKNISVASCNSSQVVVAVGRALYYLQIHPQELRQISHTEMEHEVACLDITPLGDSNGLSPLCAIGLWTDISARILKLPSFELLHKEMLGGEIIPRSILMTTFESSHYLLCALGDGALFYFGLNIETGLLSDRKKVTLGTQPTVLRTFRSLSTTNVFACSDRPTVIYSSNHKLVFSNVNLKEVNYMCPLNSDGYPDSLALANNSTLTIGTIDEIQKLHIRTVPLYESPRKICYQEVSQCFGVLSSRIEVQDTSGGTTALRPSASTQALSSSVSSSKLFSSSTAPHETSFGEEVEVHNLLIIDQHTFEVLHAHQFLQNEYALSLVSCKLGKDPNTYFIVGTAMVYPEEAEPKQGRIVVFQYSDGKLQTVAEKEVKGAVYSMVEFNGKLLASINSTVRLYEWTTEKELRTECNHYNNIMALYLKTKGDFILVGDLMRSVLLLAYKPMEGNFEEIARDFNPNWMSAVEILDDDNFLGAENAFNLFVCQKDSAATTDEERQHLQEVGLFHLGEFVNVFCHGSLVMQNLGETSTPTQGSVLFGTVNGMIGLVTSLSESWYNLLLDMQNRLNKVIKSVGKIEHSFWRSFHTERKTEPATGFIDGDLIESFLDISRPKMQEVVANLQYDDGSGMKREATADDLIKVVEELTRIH

As for `CN(C/C=C/C(=O)N1CCC([C@@H]2CCNc3c(C(N)=O)c(-c4ccc(Oc5ccccc5)cc4)nn32)CC1)CCOCCOCCOCCOCCOCCOCCOCCOCCCCCCCCc1cc(Cl)cc(NC(=O)NCc2ccc3c(c2)CN(C2CCC(=O)NC2=O)C3=O)c1` (stereo partly drawn) [Compound I-76], the half-maximal degradation concentration (DC50) in experiment [1] (Table 3) is less than 0.25 µM. In experiment [2], this compound came in with a GI50 of less than 0.1 µM.

`C=CC(=O)Nc1cc(Nc2nccc(-c3cn(C)c4ccccc34)n2)c(OC)cc1N(C)CCN(C)CCOCCOCCOCCOCCOCCOCCOCCOCCOCCOCCOCCCCCc1cc(Cl)cc(NC(=O)NCc2ccc3c(c2)CN(C2CCC(=O)NC2=O)C3=O)c1` (stereo not drawn) [Compound I-161] had a DC50 in experiment [1] (Table 3A) of 0.25 to 5 µM. Also, in experiment [3], the GI50 lay within 1 to 5 µM. Take `Nc1ncnc2c1c(-c1ccc(Oc3ccccc3)cc1)nn2[C@@H]1CCCN(C(=O)/C=C/COCCOCCOCCOCCOCCOCCOCCOCCOCCOc2cc(Cl)cc(NC(=O)NCc3ccc4c(c3)CN(C3CCC(=O)NC3=O)C4=O)c2)C1` (stereo partly drawn) [Compound I-31]: the DC50 in experiment [1] (Table 3) is 0.25 to 5 µM. Also, the GI50 in experiment [2] is 1 to 5 µM. In turn, `C=CC(=O)Nc1cc(Nc2nccc(-c3cn(C)c4ccccc34)n2)c(OC)cc1N(C)CCN(C)CCOCCOCCOCCOCCOCCCCCc1cc(Cl)cc(NC(=O)NCc2ccc3c(c2)CN(C2CCC(=O)NC2=O)C3=O)c1` (stereo not drawn) [Compound I-125] had a DC50 in experiment [1] (Table 3A) of 0.25 to 5 µM. Further, in experiment [3], the 50% growth inhibitory concentration (GI50) fell in the range of 1 to 5 µM. On to `CN(C/C=C/C(=O)N1CCC[C@@H](n2nc(-c3ccc(Oc4ccccc4)cc3)c3c(N)ncnc32)C1)CCOCCOCCOCCOCCOCCOCCCCCCCCc1cc(Cl)cc(NC(=O)NCc2ccc3c(c2)CN(C2CCC(=O)NC2=O)C3=O)c1` (stereo partly drawn) [Compound I-72], for which the DC50 in experiment [1] (Table 3) is less than 0.25 µM. The GI50 in experiment [2] was less than 0.1 µM. The compound `C=CC(=O)N[C@@H]1CN(c2nc(Nc3cn(CCOCCOCCOCCCCCc4cc(Cl)cc(NC(=O)NCc5ccc6c(c5)CN(C5CCC(=O)NC5=O)C6=O)c4)nc3OC)c3ncn(C)c3n2)C[C@H]1F` (stereo partly drawn) [Compound I-122] displayed a DC50 in experiment [1] (Table 3A) of less than 0.25 µM. This compound yielded a GI50 in experiment [3] of 0.1 to 1 µM. The like results for `COc1cc(N2CCN(C(=O)COCCOCCOCCOCCOCCOCCOCCCCCc3cc(Cl)cc(NC(=O)NCc4ccc5c(c4)CN(C4CCC(=O)NC4=O)C5=O)c3)CC2)ccc1Nc1ncc(Cl)c(Nc2ccccc2P(C)(C)=O)n1` (stereo not drawn) [Compound I-120] were, in that order, 0.25 to 5 µM and 1 to 5 µM. `CN(C/C=C/C(=O)N1CCC([C@@H]2CCNc3c(C(N)=O)c(-c4ccc(Oc5ccccc5)cc4)nn32)CC1)CCOCCOCCOCCOCCCCCCCCc1cc(Cl)cc(NC(=O)NCc2ccc3c(c2)CN(C2CCC(=O)NC2=O)C3=O)c1` (stereo partly drawn) [Compound I-74] registered a DC50 in experiment [1] (Table 3) of less than 0.25 µM. For the same compound, the GI50 in experiment [2] is less than 0.1 µM.

For the compound `C=CC(=O)Nc1cc(Nc2nccc(-c3cn(C)c4ccccc34)n2)c(OC)cc1N(C)CCN(C)CCOCCOCCOCCOCCOCCOCCOCCOCCOCCCCCc1cc(Cl)cc(NC(=O)NCc2ccc3c(c2)CN(C2CCC(=O)NC2=O)C3=O)c1` (stereo not drawn) [Compound I-160], the half-maximal degradation concentration (DC50) in experiment [1] (Table 3A) fell in the range of 0.25 to 5 µM. This compound also gave a GI50 in experiment [3] of 0.1 to 1 µM. Compound `Nc1ncnc2c1c(-c1ccc(Oc3ccccc3)cc1)nn2[C@@H]1CCCN(C(=O)/C=C/COCCOCCOCCOCCOCCOCCOCCOCCOCCOCCOCCOc2cc(Cl)cc(NC(=O)NCc3ccc4c(c3)CN(C3CCC(=O)NC3=O)C4=O)c2)C1` (stereo partly drawn) [Compound I-32] came in with a GI50 in experiment [2] of 1 to 5 µM. In experiment [1] (Table 3A), `COc1nn(C)cc1Nc1nc(N2CC(NC(=O)/C=C/CN(C)CCOCCOCCOCCOCCOCCCCCc3cc(Cl)cc(NC(=O)NCc4ccc5c(c4)CN(C4CCC(=O)NC4=O)C5=O)c3)[C@H](F)C2)nc2c1ncn2C` (stereo partly drawn) [Compound I-159] had a DC50 of 0.25 to 5 µM. Moreover, the GI50 in experiment [3] fell in the range of 1 to 5 µM. Compound `Nc1ncnc2c1c(-c1ccc(Oc3ccccc3)cc1)nn2[C@@H]1CCCN(C(=O)/C=C/COCCOCCOCCOCCOCCOCCOCCOc2cc(Cl)cc(NC(=O)NCc3ccc4c(c3)CN(C3CCC(=O)NC3=O)C4=O)c2)C1` (stereo partly drawn) [Compound I-30] registered a GI50 in experiment [2] of 0.1 to 1 µM. With `C=CC(=O)NC1CN(c2nc(Nc3cn(CCOCCOCCOCCOCCOCCOCCOCCCCCc4cc(Cl)cc(NC(=O)NCc5ccc6c(c5)CN(C5CCC(=O)NC5=O)C6=O)c4)nc3OC)c3ncn(C)c3n2)C[C@H]1F` (stereo partly drawn) [Compound I-130], the DC50 in experiment [1] (Table 3A) is 0.25 to 5 µM. The same compound displayed a GI50 in experiment [3] of 0.1 to 1 µM. The like results for `COc1cc(N(C)CCN(C)C)c(NC(=O)/C=C/CN(C)CCOCCOCCOCCOCCOCCOCCOCCCCCc2cc(Cl)cc(NC(=O)NCc3ccc4c(c3)CN(C3CCC(=O)NC3=O)C4=O)c2)cc1Nc1nccc(-c2cn(C)c3ccccc23)n1` (stereo not drawn) [Compound I-146] were, in that order, 0.25 to 5 µM and 1 to 5 µM.

With `COc1cc(N(C)CCN(C)C)c(NC(=O)/C=C/CN(C)CCOCCOCCOCCOCCOCCOCCOCCOCCOCCCCCc2cc(Cl)cc(NC(=O)NCc3ccc4c(c3)CN(C3CCC(=O)NC3=O)C4=O)c2)cc1Nc1nccc(-c2cn(C)c3ccccc23)n1` (stereo not drawn) [Compound I-132], in experiment [1] (Table 3A), the 50% degradation concentration (DC50) fell in the range of 0.25 to 5 µM. Moreover, the GI50 in experiment [3] lay within 1 to 5 µM. For the compound `COc1cc(N(C)CCN(C)C)c(NC(=O)/C=C/CN(C)CCOCCOCCOCCCCCc2cc(Cl)cc(NC(=O)NCc3ccc4c(c3)CN(C3CCC(=O)NC3=O)C4=O)c2)cc1Nc1nccc(-c2cn(C)c3ccccc23)n1` (stereo not drawn) [Compound I-145], in experiment [1] (Table 3A), the DC50 was 0.25 to 5 µM. In experiment [3], this compound registered a GI50 of 1 to 5 µM. `CN(C/C=C/C(=O)N1CCC[C@@H](n2nc(-c3ccc(Oc4ccccc4)cc3)c3c(N)ncnc32)C1)CCOCCOCCOCCOCCOCCOCCOCCOCCCCCCCCc1cc(Cl)cc(NC(=O)NCc2ccc3c(c2)CN(C2CCC(=O)NC2=O)C3=O)c1` (stereo partly drawn) [Compound I-73] showed a DC50 in experiment [1] (Table 3) of less than 0.25 µM. This compound returned a GI50 in experiment [2] of less than 0.1 µM. In turn, `COc1nn(C)cc1Nc1nc(N2CC(NC(=O)/C=C/CN(C)CCOCCOCCOCCOCCOCCOCCOCCOCCOCCCCCc3cc(Cl)cc(NC(=O)NCc4ccc5c(c4)CN(C4CCC(=O)NC4=O)C5=O)c3)[C@H](F)C2)nc2c1ncn2C` (stereo partly drawn) [Compound I-131] had a DC50 in experiment [1] (Table 3A) of 0.25 to 5 µM. The compound further yielded a GI50 in experiment [3] of 1 to 5 µM. Taken in the same sequence, the figures for `COc1cc(N(C)CCN(C)C)c(NC(=O)/C=C/CN(C)CCOCCOCCOCCOCCOCCCCCc2cc(Cl)cc(NC(=O)NCc3ccc4c(c3)CN(C3CCC(=O)NC3=O)C4=O)c2)cc1Nc1nccc(-c2cn(C)c3ccccc23)n1` (stereo not drawn) [Compound I-151] were 0.25 to 5 µM and 0.1 to 1 µM. In experiment [1] (Table 3), `CN(C/C=C/C(=O)N1CCC[C@@H](n2nc(-c3ccc(Oc4ccccc4)cc3)c3c(N)ncnc32)C1)CCOCCOCCOCCOCCCCCCCCc1cc(Cl)cc(NC(=O)NCc2ccc3c(c2)CN(C2CCC(=O)NC2=O)C3=O)c1` (stereo partly drawn) [Compound I-67] registered a DC50 of less than 0.25 µM. The GI50 in experiment [2] is less than 0.1 µM. On to `C=CC(=O)Nc1cc(Nc2nccc(-c3cn(C)c4ccccc34)n2)c(OC)cc1N(C)CCN(C)CCOCCOCCOCCCCCc1cc(Cl)cc(NC(=O)NCc2ccc3c(c2)CN(C2CCC(=O)NC2=O)C3=O)c1` (stereo not drawn) [Compound I-102], for which the DC50 in experiment [1] (Table 3A) lay within 0.25 to 5 µM. Besides, the GI50 in experiment [3] lay in the range of 1 to 5 µM. The compound `CN(C/C=C/C(=O)N1CCC([C@@H]2CCNc3c(C(N)=O)c(-c4ccc(Oc5ccccc5)cc4)nn32)CC1)CCOCCOCCOCCOCCOCCOCCCCCCCCc1cc(Cl)cc(NC(=O)NCc2ccc3c(c2)CN(C2CCC(=O)NC2=O)C3=O)c1` (stereo partly drawn) [Compound I-75] gave a DC50 in experiment [1] (Table 3) of less than 0.25 µM. Further, the GI50 in experiment [2] was less than 0.1 µM.
